In patent US20250042848A1, “DEUTERATED FUNCTIONALIZED DERIVATIVES OF alpha-ALANINE, IN [sequence] FOR THE TREATMENT OF NEUROLOGICAL DISEASES” (UNIWERSYTET JAGIELLONSKI, priority 2021, published 2025):

What was measured:
Assay type in all cases: in vivo
[1] = tested on: capsaicin-induced pain in mice; assay: Capsaicin-induced pain model
Description: This test evaluated the licking and/or biting time of the hind paw after intraplantar injection of 1.6 μg of capsaicin in a constant volume of 20 μL. Observation was carried out in the period of 5 minutes after capsaicin administration. Inhibition of the nociceptive response —shortening the time of licking and biting the paw, was a measure of the antinociceptive activity of the tested compound.
(§1) All tests/models were performed based on procedures described in the specialist literature: formalin test (Beirith et al. Eur. J. Pharmacol. 1998, 345, 233-245), capsaicin-induced pain model (Mogilski et al. Pharmacol. Biochem. Behav. 2015, 133, 99-110), oxaliplatin-induced neuropathic pain model-von Frey's test (Sałat et al. Pharmacol. Biochem. Behav. 2014, 122, 173-181), streptozotocin-induced diabetic neuropathic pain model-von Frey's test (Sałat et al. Neuropharmacology 2017, 125, 181-188; Tanabe et al. J. Pharmacol. Sci. 2008, 107, 213-220). The test group consisted of 8-10 animals.

[2] = tested on: maximal electroshock seizures in mice; assay: Maximal electroshock seizure test (MES)
Description: (§2) Initial screening was performed on groups of 4 mice. The mean effective dose (ED50) in a given test and the neurotoxic dose in the rotarod test (TD50) were estimated on the basis of the results obtained on 3-4 groups of animals consisting of 6 animals.
In the maximal electroshock seizure test (MES), the seizures were induced by 500 V, 25 mA electrical stimulus of 0.2 s in duration. The electrical pulse was generated using an electric shock generator (Rodent shocker, Type 221, Hugo Sachs Elektronik, Germany) and delivered to the animal using electrodes placed on the auricles. The study was conducted 30 minutes/2 hours after intraperitoneal administration of the compounds at various doses. During the experiment, the number of animals that experienced a seizure episode in the form of hindlimb tonic extension was counted (Łuszczki, J.J. et al. Fundam. Clin. Pharmacol. 2008, 22, 69-74).
(§3) The ED50 (effective dose) and TD50 (toxic dose) values along with the corresponding 95% confidence limits were calculated based on the Litchfield and Wilcoxon method (Litchfield, J.T.; Wilcoxon, F. J. Pharmacol. Exp. Ther. 1949, 96, 99-113). To perform a statistical evaluation of the results in the scPTZ test, one-way ANOVA variance analysis followed by Dunnett's post hoc test were used. The values were considered statistically significant if p<0.05.

[3] = tested on: psychomotor seizures induced by a 44 mA, 6 Hz stimulus in mice; assay: Psychomotor seizure test 6 Hz (44 mA); conditions: in mg/kg
Description: as §2
(§4) In the psychomotor seizure test (6 Hz test), seizures were induced by a 32 mA and/or 44 mA electrical stimulus of a frequency of 6 pulses per second. An electrical pulse was generated using an electric shock generator (ECT Unit 57800; Ugo Basile, Gemonio, Italy) and delivered to the animal using corneal electrodes. Before starting the test, the eye surface was gently moistened with a solution of local anesthetic (1% lidocaine solution). The study was conducted 30 minutes/2 hours after intraperitoneal administration of the compounds at various doses. An electrical stimulus was delivered continuously for a period of 3 seconds, followed by observation of the animal for a period of 10 seconds. During the experiment, the number of animals with an episode of psychomotor convulsions was counted: motor inhibition, staggering, maintaining a sitting posture, forelimb clonus, twitching of the vibrissae and Straub-tail were observed (Leclercq, K.; Kaminski, R.M. Epilepsia 2015, 56, 310-318).
as §3

[4] = tested on: formalin-induced pain in mice; assay: Formalin test (tonic pain); conditions: for nociceptive response, first phase of the formalin test, % of the baseline (control): phase I (0-5 min); for nociceptive response, second phase of the formalin test, % of baseline (control): phase II (15-30 min); for ED50 (dose reducing the nociceptive response by 50%), formalin test: i.p.
Description: Pain was induced with a chemical agent by intraplantar injection of 2.5% formalin solution in mice in a constant volume of 20 μL. The animals were placed in separate, transparent observation chambers for a period of 30 minutes. The measured value was the total licking and biting time of the formalin-treated paw. The nociceptive response was counted in two time intervals: 0-5 minutes from formalin injection (phase I of the test-acute pain) and 15-30 minutes from its administration (phase II of the test-inflammatory pain). The observed inhibition of the nociceptive response-shortening the time of licking and biting the paw, was interpreted as an analgesic effect of the tested compound.
as §1

[5] = tested on: oxaliplatin-induced mechanical allodynia in mice; assay: Oxaliplatin (OXPT)-induced peripheral neuropathy model, von Frey test
Description: The reaction was observed before administration and 3 hours (early phase) and 7 days (late phase) after administration of OXPT.
as §1

[6] = tested on: motor coordination of mice; assay: Rotarod test (motor coordination, acute neurotoxicity); conditions: in mg/kg
Description: as §2
The effect of the tested compounds on motor coordination was assessed in the rotarod test (May Commat, RR 0711 RotaRod, Turkey). The day before the actual experiment, the mice were trained on a rod rotating at 10 revolutions per minute (rpm) for 3 minutes. The experiment was performed 30 minutes and 2 hours after administration of the compounds. The motor coordination of the animals was tested at the speed of the rotating rod: 10 rpm for 60 seconds. The measure of neurotoxicity was the inability to stay on the rod for a given time (Łuszczki, J.J. et al. Eur. Neuropsychopharmacol. 2005, 6, 609-616).
as §3

[7] = tested on: streptozotocin-induced mechanical allodynia in mice; assay: Streptozotocin-induced diabetic neuropathic pain model, von Frey test; conditions: three weeks after STZ
Description: The response was tested 3 weeks after the streptozotocin injection. […] Importantly, d4-(R)-1 completely abolished the symptoms of developing sensory neuropathy at all doses.
as §1

[8] = tested on: psychomotor seizures induced by a 32 mA, 6 Hz stimulus in mice; assay: Psychomotor seizure test 6 Hz (32 mA)
Description: as §2, §4, §3

[9] = 0.5 h after i.p. administration
[10] = 2.0 h after i.p. administration
[11] = 30 mg/kg, seven days after OXPT (late phase)
[12] = 30 mg/kg, three hours after OXPT (early phase)
[13] = 60 mg/kg, seven days after OXPT (late phase)
[14] = 60 mg/kg, three hours after OXPT (early phase)
[15] = 90 mg/kg, seven days after OXPT (late phase)
[16] = 90 mg/kg, three hours after OXPT (early phase)

[2H]C1([2H])C(=O)N([C@H](C)C(=O)NCc2ccccc2)C(=O)C1([2H])[2H] [d4-(R)-1, (R)-N-benzyl-2-(2,5-dioxopyrrolidin-1-yl-3,3,4,4-d4) propanamide]
ED50, capsaicin test ([1]; i.p.): 17.5 mg/kg
nociceptive response in the capsaicin test, % of the initial value (control) ([1]; i.p. 30 mg/kg): 31.77%
nociceptive response in the capsaicin test, % of the initial value (control) ([1]; i.p. 60 mg/kg): 38.72%
nociceptive response in the capsaicin test, % of the initial value (control) ([1]; i.p. 90 mg/kg): 10.90%
ED50 MES [2, 9]: 43.7 mg/kg
ED50 MES [2, 10]: 50.1 mg/kg
ED50 6 Hz (44 mA) [3, 9]: 79.2
ED50 6 Hz (44 mA) [3, 10]: 125.3
nociceptive response, first phase of the formalin test, % of the baseline (control) ([4]; i.p. 30 mg/kg): 46.80%
nociceptive response, second phase of the formalin test, % of baseline (control) ([4]; i.p. 30 mg/kg): 46.04%
nociceptive response, first phase of the formalin test, % of the baseline (control) ([4]; i.p. 60 mg/kg): 49.85%
nociceptive response, second phase of the formalin test, % of baseline (control) ([4]; i.p. 60 mg/kg): 56.06%
nociceptive response, first phase of the formalin test, % of the baseline (control) ([4]; i.p. 90 mg/kg): 64.40%
nociceptive response, second phase of the formalin test, % of baseline (control) ([4]; i.p. 90 mg/kg): 43.36%
nociceptive response, first phase of the formalin test, % of the baseline (control) ([4]; i.p. 120 mg/kg): 39.68%
nociceptive response, second phase of the formalin test, % of baseline (control) ([4]; i.p. 120 mg/kg): 30.24%
ED50 (dose reducing the nociceptive response by 50%), formalin test ([4]; phase I): 97.9 mg/kg
ED50 (dose reducing the nociceptive response by 50%), formalin test ([4]; phase II): 71.5 mg/kg
pain threshold (von Frey) [5, 11]: 6.38 ± 0.50 g
pain threshold, % of baseline [5, 11]: 123.9%
pain threshold (von Frey) [5, 12]: 5.73 ± 0.40 g
pain threshold, % of baseline [5, 12]: 111.3%
pain threshold (von Frey) [5, 13]: 7.34 ± 0.42 g
pain threshold, % of baseline [5, 13]: 119.2%
pain threshold (von Frey) [5, 14]: 5.33 ± 0.427 g
pain threshold, % of baseline [5, 14]: 86.5%
pain threshold (von Frey) [5, 15]: 7.04 ± 0.31 g
pain threshold, % of baseline [5, 15]: 110.5%
pain threshold (von Frey) [5, 16]: 7.23 ± 0.42 g
pain threshold, % of baseline [5, 16]: 113.5%
TD50 Rotarod [6, 9]: 176.7
TD50 Rotarod [6, 10]: >300
pain threshold (von Frey) ([7]; 30 mg/kg i.p.): 6.80 ± 0.54 g
pain threshold, % of baseline ([7]; 30 mg/kg i.p.): 115.4%
pain threshold (von Frey) ([7]; 60 mg/kg i.p.): 8.64 ± 0.72 g
pain threshold, % of baseline ([7]; 60 mg/kg i.p.): 146.6%
pain threshold (von Frey) ([7]; 90 mg/kg i.p.): 9.40 ± 0.61 g
pain threshold, % of baseline ([7]; 90 mg/kg i.p.): 159.6%
ED50 6 Hz (32 mA) [8, 9]: 18.6 mg/kg
ED50 6 Hz (32 mA) [8, 10]: 46.4 mg/kg
